Assay results published in patent publication US5385842A, “Anthraquinones as inhibitors of sulfide production from sulfate-reducing bacteria” (E. I. Du Pont de Nemours and Company, priority 1993, dated 1995).
Structures can show the parent of a compound that is named as a salt.

What follows are molecules tested on Desulfovibrio desulfuricans G100A (assay: microbe, parasite or virus in culture). Conditions: not given.
Format: cell-based

SMILES | inhibition of sulfide production (in words)
Nc1cccc2c1C(=O)c1ccccc1C2=O [1-Aminoanthraquinone] | inhibited sulfide formation

Same assay, conditions: Desulfovibrio desulfuricans, G100A, read-out: % Inhib. (inhibition of sulfide production)

SMILES | inhibition at 10 ppm | inhibition at 30 ppm | inhibition at 10 µg/mL
O=C1c2ccccc2C(=O)c2c1cccc2N(NS(=O)(=O)O)S(=O)(=O)O [1-(9,10-Dihydro-9,10-dioxo-1-anthracenyl)-1,2-hydrazinedisulfonic acid, di Na salt] | 10% |  | 
O=C1c2ccccc2C(=O)c2c(SBr)cccc21 [1-(Bromothio)anthraquinone] |  | 6.5% | 
CNc1cccc2c1C(=O)c1ccccc1C2=O [1-(Methylamino)anthraquinone] |  |  | 19.1%
Nc1c(Br)cc(Br)c2c1C(=O)c1ccccc1C2=O [1-Amino-2,4-dibromoanthraquinone] | 44.6% |  | 
NCCSc1cc(O)c2c(c1N)C(=O)c1ccccc1C2=O [1-Amino-2-(2-aminoethylthio)-4-hydroxyanthraquinone] |  | 24.7% | 
Nc1c(Br)cc(O)c2c1C(=O)c1ccccc1C2=O [1-Amino-2-bromo-4-hydroxyanthraquinone] |  | 6.5% | 
CNc1ccc(N)c2c1C(=O)c1ccccc1C2=O [1-Amino-4-(methylamino)anthraquinone] |  | 0% | 
Nc1ccc(NC(=O)c2ccccc2)c2c1C(=O)c1ccccc1C2=O [1-Amino-4-benzamidoanthraquinone, N-(4-Amino-9,10-dihydro-9,10-dioxo-1-anthracenyl)-benzamide] |  | 0% | 
Cc1cc(Br)c2c(c1N)C(=O)c1ccccc1C2=O [1-Amino-4-bromo-2-methylanthraquinone] |  |  | 8%
Nc1c(S(=O)(=O)O)cc(Br)c2c1C(=O)c1ccccc1C2=O [1-Amino-4-bromo-9,10-dihydro-9,10-dioxo-2-anthracene-sulfonic acid, Na salt] | 4.3% |  | 
Cc1cc(Cl)c2c(c1N)C(=O)c1ccccc1C2=O [1-Amino-4-chloro-2-methylanthraquinone] |  | 5.2% | 
COc1ccc(N)c2c1C(=O)c1ccccc1C2=O [1-Amino-4-methoxyanthraquinone] | 57.1% |  | 
Nc1cccc2c1C(=O)c1cc(Cl)c(Cl)cc1C2=O [1-Amino-6,7-dichloroanthraquinone] |  | 22.9% | 
Cc1ccc(S(=O)(=O)Nc2cc(S(=O)(=O)O)c(N)c3c2C(=O)c2ccccc2C3=O)cc1 [1-Amino-9,10-dihydro-4[[(4-methylphenyl)sulfonyl]-amino]-9,10-dioxo-2-anthracenesulfonic acid, Na salt] | 3.9% |  | 
N#[N+]c1cccc2c1C(=O)c1ccccc1C2=O [1-Aminoanthraquinone diazonium salt] |  | 20.8% | 
Nc1c(S(=O)(=O)O)ccc2c1C(=O)c1ccccc1C2=O [1-Aminoanthraquinone-2-sulfonic acid, 1-Amino-9,10-dihydro-9,10-dioxo-2-anthracenesulfonic acid] |  | 37.5% | 
Nc1cccc2c1C(=O)c1ccccc1C2=O [1-Aminoanthraquinone] | 28.4% |  | 
O=C1c2ccccc2C(=O)c2c1cccc2S(=O)(=O)O [1-Anthraquinonesulfonic acid, Na salt] |  | 3.9% | 
O=C(Nc1ccc(Cl)c2c1C(=O)c1ccccc1C2=O)c1ccccc1 [1-Benzamido-4-chloroanthraquinone, N-(4-Chloro-9,10-dihydro-9,10-dioxo-1-anthracenyl)-benzamide] |  | 8.6% | 

SMILES | inhibition at 10 ppm | inhibition at 30 ppm | inhibition at 10 µg/mL
O=C(Nc1cccc2c1C(=O)c1cccc(Cl)c1C2=O)c1ccccc1 [1-Benzamido-5-chloroanthraquinone, N-(5-Chloro-9,10-dihydro-9,10-dioxo-1-anthracenyl)-benzamide] |  | 10.4% | 
CNc1ccc(Br)c2c1C(=O)c1ccccc1C2=O [1-Bromo-4-(methylamino)anthraquinone] |  | 0% | 
Cc1ccc(Nc2ccc(O)c3c2C(=O)c2ccccc2C3=O)cc1 [1-Hydroxy-4-(p-toluidino)-anthraquinone, 1-Hydroxy-4-[(4-methylphenyl)amino]-9,10-anthracene-dione] |  | 3.9% | 
O=C1c2ccccc2C(=O)c2c(O)cccc21 [1-Hydroxyanthraquinone] | 59.3% |  | 
Cc1ccc2c(c1-c1c(C)ccc3c1C(=O)c1ccccc1C3=O)C(=O)c1ccccc1C2=O [2,2'-Dimethyl-1,1'-bianthraquinone, 2,2'-Dimethyl-[1,1'-bianthracene]-9,9',10,10'-tetrone] |  | 59.7% | 
Cc1c(C)c(O)c2c(c1O)C(=O)c1ccccc1C2=O [2,3-dimethyl-1,4-dihydroxyanthraquinone] |  | 5.7% | 
O=C1c2c(Br)cc(Br)c(O)c2C(=O)c2c(O)c(Br)cc(Br)c21 [2,4,5,7-Tetrabromochrysazin, 2,4,5,7-Tetrabromo-1,8-dihydroxy-9,10-anthracenedione] | 40.6% |  | 
Nc1ccc2c(c1)C(=O)c1ccc(N)cc1C2=O [2,6-Diaminoanthraquinone] | 27.2% |  | 
O=C1c2ccc(O)cc2C(=O)c2ccc(O)cc21 [2,6-Dihydroxyanthraquinone] | 28.2% |  | 
CC(C)(C)C(=O)Nc1ccc2c(c1)C(=O)c1ccccc1C2=O [2-(2,2,2-Trimethylpropionamido)anthraquinone] |  | 48.1% | 
O=C1c2ccccc2C(=O)c2cc(NC(=O)C3CC3)ccc21 [2-(Cyclopropylcarboxamido)anthraquinone] |  | 2.6% | 
O=C1c2ccccc2C(=O)c2cc(CO)ccc21 [2-(Hydroxymethyl)anthraquinone] |  | 87% | 
Nc1cc2c(cc1Cl)C(=O)c1ccccc1C2=O [2-Amino-3-chloroanthraquinone] |  | 3.9% | 
Nc1cc2c(cc1O)C(=O)c1ccccc1C2=O [2-Amino-3-hydroxyanthraquinone] |  | 11.4% | 
Nc1ccc2c(c1)C(=O)c1ccccc1C2=O [2-Aminoanthraquinone] | 30.4% |  | 
Cc1cc2c(cc1Br)C(=O)c1ccccc1C2=O [2-Bromo-3-methylanthraquinone] |  | 26% | 
O=C1c2ccccc2C(=O)c2cc(Cl)ccc21 [2-Chloroanthraquinone] |  | 98.7% | 
CCc1ccc2c(c1)C(=O)c1ccccc1C2=O [2-Ethylanthraquinone] |  |  | 57.1%
COc1cc2c(cc1C)C(=O)c1ccccc1C2=O [2-Methoxy-3-methyl-9,10-anthracenedione] |  | 5% | 

SMILES | inhibition at 10 ppm | inhibition at 30 ppm | inhibition at 10 µg/mL
Cc1ccc2c(c1[N+](=O)[O-])C(=O)c1ccccc1C2=O [2-Methyl-1-nitroanthraquinone] |  | 50% | 
Cc1ccc2c(c1)C(=O)c1ccccc1C2=O [2-Methylanthraquinone] |  | 10.4% | 
O=C1c2ccccc2C(=O)c2c(O)c(S(=O)(=O)O)c(Oc3ccc(S(=O)(=O)O)cc3)c(O)c21 [2-Phenoxy quinizarin-3,4'-disulfonic acid, di K salt] | 28.1% |  | 
CCC(=O)Nc1ccc2c(c1)C(=O)c1ccccc1C2=O [2-Propionamidoanthraquinone] |  | 10.4% | 
CC(C)(C)c1ccc2c(c1)C(=O)c1ccccc1C2=O [2-tert-butylanthraquinone] |  | 5.2% | 
O=C(Nc1ccc(Nc2ccc(NC(=O)c3ccccc3)c3c2C(=O)c2ccccc2C3=O)c2c1C(=O)c1ccccc1C2=O)c1ccccc1 [4,4'-Dibenzamido-1,1'-dianthrimide, N,N'-[Iminobis(9,10-dihydro-9,10-dioxo-4,1-anthracenediyl)]bisbenzamide] |  | 5.2% | 
O=C(Nc1cccc2c1C(=O)c1cccc(Nc3cccc4c3C(=O)c3cccc(NC(=O)c5ccccc5)c3C4=O)c1C2=O)c1ccccc1 [4,5'-Dibenzamido-1,1'-dianthrimide, N,N'-[Iminobis(9,10-dihydro-9,10-dioxo-5,1-anthracenediyl)]bisbenzamide] |  | 0% | 
Nc1cccc2c1C(=O)c1cccc(Cl)c1C2=O [5-Chloro-1-aminoanthraquinone] | 57.1% |  | 
O=C1c2cccc(S(=O)(=O)O)c2C(=O)c2cccc([N+](=O)[O-])c21 [5-Nitroanthraquinone-1-sulfonic acid, 9,10-Dihydro-5-nitro-9,10-dioxo-1-anthracenesulfonic acid] | 66% |  | 
O=C1c2cc(Cl)c(Cl)cc2C(=O)c2c(O)ccc(O)c21 [6,7-Dichloro-1,4-dihydroxyanthraquinone] |  | 5.7% | 
O=c1c2ccccc2c(=O)c2c1cc(Cl)c1[nH]c3c([nH]c12)c(Cl)cc1c(=O)c2ccccc2c(=O)c13 [7,16-Dichloroindanthrone, 7,16-Dichloro-6,15-dihydro-5,9,14,18-anthrazinetetrone] | 43.8% |  | 
O=C1c2ccccc2C(=O)c2c(O)c(S(=O)(=O)O)cc(O)c21 [9,10-Dihydro-1,4-dihydroxy-9,10-dioxo-2-anthracenesulfonic acid] |  | 7.8% | 
O=C(O)c1cc2c(cc1C(=O)O)C(=O)c1ccccc1C2=O [9,10-Dihydro-9,10-dioxo-2,3-anthracenedicarboxylic acid] |  | 10% | 
O=C1c2ccc(S(=O)(=O)O)cc2C(=O)c2cc(S(=O)(=O)O)ccc21 [9,10-Dihydro-9,10-dioxo-2,7-anthracenedisulfonic acid, di Na salt] |  | 9.1% | 
O=C1c2c(O)c(O)c(S(=O)(=O)O)c(O)c2C(=O)c2c(O)c(O)c(S(=O)(=O)O)c(O)c21 [Acid alizarin blue BB, 9,10-Dihydro-1,3,4,5,7,8-hexahydroxy-9,10-dioxo-2,6-anthracenedisulfonic acid] |  | 0% | 
Nc1c(S(=O)(=O)O)cc(Nc2ccccc2)c2c1C(=O)c1ccccc1C2=O [Acid blue 25, 1-Amino-9,10-dihydro-9,10-dioxo-4-(phenylamino)-2-anthracenesulfonic acid, Na salt] | 26% |  | 
CC(=O)Nc1ccc(Nc2cc(S(=O)(=O)O)c(N)c3c2C(=O)c2ccccc2C3=O)cc1 [Acid blue 40, 4-[[4-(Acetylamino)phenyl]amino]-1-amino-9,10-dihydro-9,10-dioxo-2-anthracenesulfonic acid, Na salt] | 12.5% |  | 
CC(=O)N(C)c1ccc(Nc2cc(S(=O)(=O)O)c(N)c3c2C(=O)c2ccccc2C3=O)cc1 [Acid blue 41, 4-[[4-(Acetylmethylamino)phenyl]amino]-1-amino-9,10-dihydro-9,10-dioxo-2-anthracenesulfonic acid, Na salt] | 0% |  | 

Same assay, conditions: Table III, Example 3

SMILES | % inhibition of sulfide formation
Nc1cccc2c1C(=O)c1ccccc1C2=O [1-Aminoanthraquinone] | 72%
